Data reported in ChEMBL document CHEMBL1201862, “PubChem BioAssay data set” (2004).
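Five concentrations, 48 hours, 96-well plates. GI50 = concentration required for 50% inhibition of growth.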 Activity calls are given as the source filed them. Cut-off read from the data, not from the text of the source: active = GI50 up to about 1.1 µM and inactive = higher. Where a SMILES comes first, the peptide text is derived from it. [ ]: non-standard residue; d: D form. The star is where a group is joined. NMeF = CN[CH](Cc1ccccc1)C(=O)O; NMeV = CN[CH](C(=O)O)C(C)C; Boc = CC(C)(C)OC(=O)*; OBn = c1ccc(CO*)cc1

Legend:
Test in all cases: DTP human tumour cell line panel, 48 h
ACHN = test system: ACHN
HCC 2998 = test system: HCC 2998
HCT-15 = test system: HCT-15
HL-60 = test system: HL-60
HT-29 = test system: HT-29
K562 = test system: K562
LXFL 529 = test system: LXFL 529
MOLT-4 = test system: MOLT-4
NCI-H460 = test system: NCI-H460
OVCAR-8 = test system: OVCAR-8
SF-295 = test system: SF-295
SF-539 = test system: SF-539
SK-MEL-2 = test system: SK-MEL-2
SK-OV-3 = test system: SK-OV-3
SNB-19 = test system: SNB-19
UACC-257 = test system: UACC-257
UACC-62 = test system: UACC-62
CAKI-1 = test system: CAKI-1
SNB-75 = test system: SNB-75

SMILES	GI50 (ACHN)	GI50 (HCC 2998)	GI50 (HCT-15)	GI50 (HL-60)	GI50 (HT-29)	GI50 (K562)	GI50 (LXFL 529)	GI50 (MOLT-4)	GI50 (NCI-H460)	GI50 (OVCAR-8)	GI50 (SF-295)	GI50 (SF-539)	GI50 (SK-MEL-2)	GI50 (SK-OV-3)	GI50 (SNB-19)	GI50 (UACC-257)	GI50 (UACC-62)	GI50 (CAKI-1)	GI50 (SNB-75)
O=C(OC1CCC(=C2SCCCS2)[C@H]1C1SCCCS1)c1ccccc1 (stereo partly specified)	> 100 µM (inactive)	> 100 µM (inactive)	> 100 µM	52.7 µM (inactive)	> 100 µM (inactive)	75 µM (inactive)	> 100 µM (inactive)	> 100 µM (inactive)	> 100 µM (inactive)	> 100 µM (inactive)	> 100 µM (inactive)	> 100 µM (inactive)	> 100 µM (inactive)	> 100 µM (inactive)	> 100 µM (inactive)	> 100 µM (inactive)	45.4 µM (inactive)	–	–
O=P1(Oc2ccccc2)C(c2ccccc2)C(c2ccccc2)=NN1c1ccccc1 (stereo unspecified)	24.5 µM (inactive)	28.8 µM (inactive)	19.6 µM	15.8 µM (inactive)	18.3 µM (inactive)	24.8 µM (inactive)	19.8 µM (inactive)	22 µM (inactive)	24.2 µM (inactive)	37 µM (inactive)	28.2 µM (inactive)	18.4 µM (inactive)	15.9 µM (inactive)	22.6 µM (inactive)	34.9 µM (inactive)	27.9 µM (inactive)	18.2 µM (inactive)	23.9 µM (inactive)	30 µM (inactive)
O=C1C2c3[nH]c4ccccc4c3C3CCCCC3C2C(=O)N1c1ccccc1 (stereo unspecified)	99.3 µM (inactive)	> 100 µM (inactive)	> 100 µM	> 100 µM (inactive)	> 100 µM (inactive)	63.8 µM (inactive)	> 100 µM (inactive)	64.7 µM (inactive)	> 100 µM (inactive)	> 100 µM (inactive)	48.9 µM (inactive)	34 µM (inactive)	–	20.7 µM (inactive)	84.1 µM (inactive)	–	> 100 µM (inactive)	–	11.3 µM (inactive)
Cc1c(C)c([N+](=O)[O-])c2c(c1N)C(=O)c1ccccc1C2=O	> 100 µM (inactive)	> 100 µM (inactive)	> 100 µM	> 100 µM (inactive)	55.2 µM (inactive)	> 100 µM (inactive)	> 100 µM (inactive)	> 100 µM (inactive)	–	> 100 µM (inactive)	> 100 µM (inactive)	> 100 µM (inactive)	> 100 µM (inactive)	> 100 µM (inactive)	> 100 µM (inactive)	> 100 µM (inactive)	> 100 µM (inactive)	–	> 100 µM (inactive)
NC1=NS(=O)(=O)Nc2nc(-c3ccc(Cl)cc3)[nH]c21	> 100 µM (inactive)	> 100 µM (inactive)	> 100 µM	> 100 µM (inactive)	> 100 µM (inactive)	> 100 µM (inactive)	> 100 µM (inactive)	> 100 µM (inactive)	> 100 µM (inactive)	> 100 µM (inactive)	> 100 µM (inactive)	> 100 µM (inactive)	> 100 µM (inactive)	> 100 µM (inactive)	> 100 µM (inactive)	–	> 100 µM (inactive)	> 100 µM (inactive)	62.7 µM (inactive)
CC(C)OP(=O)(OC(C)C)/C(=N/Nc1ccccc1[N+](=O)[O-])NCCN/C(=N\Nc1ccccc1[N+](=O)[O-])P(=O)(OC(C)C)OC(C)C	30.1 µM (inactive)	39.4 µM (inactive)	30.3 µM	23.7 µM (inactive)	–	35.3 µM (inactive)	19.5 µM (inactive)	43.2 µM (inactive)	> 10 µM (inactive)	39.5 µM (inactive)	–	38.1 µM (inactive)	19.6 µM (inactive)	–	38 µM (inactive)	29.2 µM (inactive)	19.2 µM (inactive)	25.6 µM (inactive)	89.3 µM (inactive)
O=C(O)c1ccc(C2C3C=CC(C3)C2[N+](=O)[O-])cc1 (stereo unspecified)	–	> 100 µM (inactive)	> 100 µM	> 100 µM (inactive)	> 100 µM (inactive)	> 100 µM (inactive)	> 100 µM (inactive)	> 100 µM (inactive)	> 100 µM (inactive)	> 100 µM (inactive)	> 100 µM (inactive)	> 100 µM (inactive)	> 100 µM (inactive)	> 100 µM (inactive)	> 100 µM (inactive)	> 100 µM (inactive)	> 100 µM (inactive)	> 100 µM (inactive)	91.2 µM (inactive)
CC(C)C(NC(=O)OC(C)(C)C)C(=O)N(C)C(Cc1ccccc1)C(=O)N(C)C(C(=O)N(C)C(C(=O)OCc1ccccc1)C(C)C)C(C)C (stereo unspecified) (Boc-V[NMeF][NMeV][NMeV]-OBn; configuration not given here)	26.4 µM (inactive)	44.2 µM (inactive)	> 100 µM	> 100 µM (inactive)	20.2 µM (inactive)	> 100 µM (inactive)	7.6 µM (inactive)	4.81 µM (inactive)	> 100 µM (inactive)	> 100 µM (inactive)	51.2 µM (inactive)	> 100 µM (inactive)	–	–	> 100 µM (inactive)	39.6 µM (inactive)	> 100 µM (inactive)	–	–
